Assay results published in EP1473301A2, “Betulinol derivatives” (CORNELL RESEARCH FOUNDATION, INC., priority 1997, dated 1998).

What was measured:
[1] = test system: WALKER-CARCINOMA (carcinosarcoma); assay: Anti-carcinogenic activity in rats implanted with Walker carcinoma (tumor volume, average length of life, % cured); assay type: in vivo, white rats
Procedure: (§1) The anti-carcinogenic activity of betulinol biacetate and betulonic aldehyde was assessed using 117-120 gram white rats implanted with […] and 21-23 gram white mice with artificially transplanted Ehrlich's tumor.
(§2) Solutions of 2.5% betulonic aldehyde and 0.05% betulinol biacetate were prepared in 10% polyvinylpyrrolidone containing Tween-80 (a sorbitan mono-9-octadecenate poly(oxy-1,2-ethanediyl)) stabilizer.
(§3) Mice were injected with 0.1-0.2 ml of either betulinol biacetate or betulonic aldehyde solution daily, starting 24 hours after transplantation, for the following 5 days. Rats were injected with 1.2 ml of either betulinol biacetate or betulonic aldehyde solution daily, starting 24 hours after implantation, for the following 5 days. Animals in control groups received the same amount of a 10% solution of polyvinylpyrrolidone.
(§4) The anti-tumor effect of betulinol acetate or betulonic aldehyde was determined by measuring the volume of the tumor on the 10th day after implantation. An average length of life ("ALL") was calculated for each of the deceased animals. In addition, the percentage of cured rats was also determined.
(§5) The volume of the tumor was measured and calculated as a multiple of the quadrate of its similar diameter by the greater diameter. Thus, the effect was expressed as a ratio ("E/C"), in percent, of the tumor volume in rats treated with betulinol acetate or betulonic aldehyde ("E") and the tumor volume in control rats ("C"). The effect of betulinol acetate or betulonic aldehyde on ALL was evaluated the same way.
(§6) A total of 155 mice and 142 rats were used for these experiments.

EHRLICH-LETTRE CARCINOMA = assay: Anti-carcinogenic activity in mice with transplanted Ehrlich tumor (average length of life); assay type: in vivo, white mice; conditions: for ALL (Average length of life): 17 Mice/Group, control 10.6; for % of control (ALL): control = 100
Procedure: as §1, §2, §3, §4, §5, §6

[2] = Betulinol biacetate solubility in organic solvents; assay type: physicochemical
Procedure: Studies of betulinol biacetate solubility were conducted in order to determine the appropriate solvent for product crystallization and purification.

[3] = Group 1, Dose/day 206.7 mg/kg body weight
[4] = Group 2, Dose/day 197.0 mg/kg body weight
[5] = Group 3, Dose/day 98.0 mg/kg body weight

Compound: C=C(C)[C@@H]1CC[C@]2(C=O)CC[C@]3(C)[C@H](CC[C@@H]4[C@@]5(C)CCC(=O)C(C)(C)[C@@H]5CC[C@]43C)[C@@H]12 [Betulon aldehyde, Betulonic Aldehyde]
- rate of the tumor growth inhibited (of the control group) ([1]; 10th day, tumor volume versus control, dose and species not stated in the sentence (method speaks of rats)): 31.2%
- ALL (Average length of life) ([1]; rats, Group 1, Dose/day 102.6 mg/kg body weight, injected daily for 5 days, 28 Rats/Group, control 21.7): 26.5 days
- % of control (ALL) ([1]; rats, Group 1, Dose/day 102.6 mg/kg body weight, control = 100): 122.1%
- % cured ([1]; rats, Group 1, Dose/day 102.6 mg/kg body weight, cured rats lived over two months after implantation): 33.0%
- ALL (Average length of life) (EHRLICH-LETTRE CARCINOMA; [3]): 12.5 days
- % of control (ALL) (EHRLICH-LETTRE CARCINOMA; [3]): 118.0%
- ALL (Average length of life) (EHRLICH-LETTRE CARCINOMA; [4]): 10.5 days
- % of control (ALL) (EHRLICH-LETTRE CARCINOMA; [4]): 99.1%
- ALL (Average length of life) (EHRLICH-LETTRE CARCINOMA; [5]): 11.0 days
- % of control (ALL) (EHRLICH-LETTRE CARCINOMA; [5]): 103.7%

Compound: C=C(C)[C@@H]1CC[C@]2(COC(C)=O)CC[C@]3(C)[C@H](CC[C@@H]4[C@@]5(C)CC[C@H](OC(C)=O)C(C)(C)[C@@H]5CC[C@]43C)[C@@H]12 [Betulinol diacetate, Betulinol Biacetate]
- BBA Mass Content, %, at 20 °C ([2]; Acetone): 32 mass %
- BBA Mass Content, %, at T (°C) ([2]; Acetone, 56 °C): 68 mass %
- BBA Mass Content, %, at 20 °C ([2]; Benzene): 100 mass %
- BBA Mass Content, %, at 20 °C ([2]; Butanol): 15 mass %
- BBA Mass Content, %, at T (°C) ([2]; Butanol, 95 °C): 100 mass %
- BBA Mass Content, %, at 20 °C ([2]; Chloroform): 100 mass %
- BBA Mass Content, %, at 20 °C ([2]; Dimethylsulfoxide): 30 mass %
- BBA Mass Content, %, at T (°C) ([2]; Dimethylsulfoxide, 189 °C): 100 mass %
- BBA Mass Content, %, at 20 °C ([2]; Dioxane): 30 mass %
- BBA Mass Content, %, at T (°C) ([2]; Dioxane, 101 °C): 100 mass %
- BBA Mass Content, %, at 20 °C ([2]; Ethanol): 2.8 mass %
- BBA Mass Content, %, at T (°C) ([2]; Ethanol, 78 °C): 18 mass %
- BBA Mass Content, %, at 20 °C ([2]; Ethylacetate): 53 mass %
- BBA Mass Content, %, at T (°C) ([2]; Ethylacetate, 77 °C): 100 mass %
- BBA Mass Content, %, at 20 °C ([2]; Hexane): 15 mass %
- BBA Mass Content, %, at T (°C) ([2]; Hexane, 69 °C): 52 mass %
- BBA Mass Content, %, at 20 °C ([2]; Isopropanol): 6.5 mass %
- BBA Mass Content, %, at T (°C) ([2]; Isopropanol, 82 °C): 72 mass %
- BBA Mass Content, %, at 20 °C ([2]; Toluene): 100 mass %
